Data from patent publication US9365572B2, “PI3K and/or mTOR inhibitor” (XUANZHU PHARMA CO., LTD., priority 2012, dated 2016).

Key:
Test in all cases: Kinase selectivity, Mobility shift assay
Type in all cases: biochemical
JAK3 = JAK3 (Homo sapiens (Human), UniProt P52333)
Description: (§1) Object: In this assay, the inhibitory activity of the test substance on the kinases listed in Table 3 was determined, and therefore the selectivity of the present compound was determined.
(§2) Except for the BRAF V600E kinase in Table 3, the Mobility shift assay was used for other kinases.
(§3) 1. Preparation of Agents:
(§4) • 1.1 1-fold kinase buffer without MnCl2: 50 mM HEPES, pH 7.5, 0.0015% Brij-35, 10 mM MgCl2, 2 mM DTT. • 1.2 1-fold kinase buffer with MnCl2: 50 mM HEPES, pH 7.5, 0.0015% Brij-35, 10 mM MgCl2, 10 mM MnCl2, 2 mM DTT. • 1.3 Termination solution: 100 mM HEPES, pH 7.5, 0.0015% Brij-35, 0.2% Coating Reagent#3, 50 mM EDTA. • 1.4 2.5-fold kinase solution: The kinase was added to the 1-fold kinase buffer to form a 2.5-fold kinase solution. • 1.5 2.5-fold substrate solution: FAM fluorescence-labelled polypeptide and ATP were added to the 1-fold kinase buffer to form a 2.5-fold substrate solution. 2. Preparation of 5-fold compound
(§5) The final test concentration of the compound was 10 μM at maximum. Firstly, a 50-fold concentration (i.e. 500 μM) was prepared with 100% DMSO. The compound was diluted with 100% DMSO by 5 folds at 5 concentrations (successively 500 μM, 100 μM, 20 μM, 4 μM, and 0.8 μM). After diluting with 1-fold kinase buffer by 10 folds, 5 μl of the samples were transferred to a 384-well reaction plate. Two negative control wells and two positive control wells were set at each line respectively. Replication was made in a 96-well plate in five concentrations of 5-fold compound. 10% DMSO was added to the positive control well, and 5 μl of EDTA (250 mM) was added to the negative control well.
(§6) • 3.1 To the 384-well reaction plate was added 5-fold compound dissolved in 10% DMSO at 5 μl/well. • 3.2 To the 384-well reaction plate was added 2.5-fold kinase solution at 10 μl/well. The plate was incubated at room temperature for 10 mins. • 3.3 To the 384-well reaction plate was added 2.5-fold substrate solution at 10 μl/well. The plate was incubated at 28° C. for a certain period. • 3.4 25 μl termination solution was added to terminate the reaction. The conversion was read from Caliper. 4. Inhibition rate calculation Inhibition rate (%)=(maximum−sample value)/(maximum−minimum)×100 • wherein: • maximum refers to the conversion at the DMSO control well, • minimum refers to the conversion at the control well without kinase. Lanthascreen Analysis Method for the BRAF V600E Kinase 1. Preparation of Agents: • 1.1 2-fold kinase solution: using 1-fold kinase buffer to prepare 2-fold kinase solution, with a final concentration of 0.35 nM of BRAFV600E; • 1.2 4-fold substrate solution: using 1-fold kinase buffer to prepare 4-fold substrate solution, with a final substrate solution concentration of 0.2 μM of Fluorescein-MAP2K1 and 1.5 μM of ATP. 2. Preparation of 4-fold compound • The final test concentration of the compound was 10 μM at maximum. Firstly, a 100-fold concentration (i.e. 1000 μM) was prepared with 100% DMSO. The compound was diluted with 100% DMSO by 5 folds at 5 concentrations. The compound series was identical to that in the Mobility Shift Assay. After diluting with 1-fold kinase buffer by 25 folds, the resulting samples were shaked and mixed evenly on a plate-shaker for 10 mins. 3. Procedure • 3.1 To the 384-well reaction plate was added 4-fold compound dissolved in 10% DMSO at 2.5 µl/well; • 3.2 To the 384-well reaction plate was added 2-fold kinase solution at 5 μl/well, and to the negative control wells were added 1-fold kinase buffer. The samples were shaked, mixed evenly, and kept standing at room temperature. • 3.3 To the 384-well reaction plate was added 4-fold substrate solution at 2.5 μl/well. The plate was reacted, shaked, mixed evenly and incubated at room temperature for one hour; • 3.4 Reaction result detection: 2-fold detection solution was prepared, with a final concentration of 2 nM of Antibody and 10 mM of EDTA. 10 μl of the detection solution was transferred to the 384-well plate to terminate the reaction. […]

GSK3β = GSK3β (Homo sapiens (Human), UniProt P49841)
Description: as §1, §2, §3, §4, §5, §6

CMET = CMET (Homo sapiens (Human), UniProt P08581)
Description: as §1, §2, §3, §4, §5, §6

PIM1 = PIM1 (Homo sapiens (Human), UniProt P11309)
PIM1, sequence (P11309 whole entry, species assumed): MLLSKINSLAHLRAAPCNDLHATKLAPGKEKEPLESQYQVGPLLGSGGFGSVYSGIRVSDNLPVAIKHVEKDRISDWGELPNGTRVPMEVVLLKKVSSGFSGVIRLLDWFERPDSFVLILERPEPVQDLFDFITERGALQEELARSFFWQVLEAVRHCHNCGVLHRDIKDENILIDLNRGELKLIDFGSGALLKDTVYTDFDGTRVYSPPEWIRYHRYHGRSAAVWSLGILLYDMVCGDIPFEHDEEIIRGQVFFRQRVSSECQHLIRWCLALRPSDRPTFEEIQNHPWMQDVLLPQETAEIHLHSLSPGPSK
Description: as §1, §2, §3, §4, §5, §6

SYK = SYK (Homo sapiens (Human), UniProt P43405)
Description: as §1, §2, §3, §4, §5, §6

IKKB = IKKB (Homo sapiens (Human), UniProt O14920)
IKKB, sequence (O14920 whole entry, species assumed): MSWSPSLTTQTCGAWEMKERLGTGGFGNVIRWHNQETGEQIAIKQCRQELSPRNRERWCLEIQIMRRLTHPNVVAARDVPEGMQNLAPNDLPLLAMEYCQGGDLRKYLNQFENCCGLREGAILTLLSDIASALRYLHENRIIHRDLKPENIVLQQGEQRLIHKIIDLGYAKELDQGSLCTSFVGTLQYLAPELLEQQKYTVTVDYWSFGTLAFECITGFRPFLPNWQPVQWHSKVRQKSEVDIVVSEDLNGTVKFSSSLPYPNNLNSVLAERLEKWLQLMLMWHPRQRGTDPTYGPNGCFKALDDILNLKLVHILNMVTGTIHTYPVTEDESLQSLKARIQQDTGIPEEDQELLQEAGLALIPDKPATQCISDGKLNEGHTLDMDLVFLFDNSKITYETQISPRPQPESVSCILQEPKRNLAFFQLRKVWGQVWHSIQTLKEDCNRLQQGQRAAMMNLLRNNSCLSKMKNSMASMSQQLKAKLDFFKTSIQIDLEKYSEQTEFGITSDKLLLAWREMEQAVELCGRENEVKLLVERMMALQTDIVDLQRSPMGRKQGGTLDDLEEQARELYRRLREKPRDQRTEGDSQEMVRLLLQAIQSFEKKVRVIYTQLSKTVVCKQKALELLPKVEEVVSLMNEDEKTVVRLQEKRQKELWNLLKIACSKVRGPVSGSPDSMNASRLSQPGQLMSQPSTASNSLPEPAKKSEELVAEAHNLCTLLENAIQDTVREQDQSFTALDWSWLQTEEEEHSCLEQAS
Description: as §1, §2, §3, §4, §5, §6

JNK2 = JNK2 (Homo sapiens (Human), UniProt P45984)
Description: as §1, §2, §3, §4, §5, §6

KDR = KDR (Homo sapiens (Human), UniProt P35968)
Description: as §1, §2, §3, §4, §5, §6

CK1d = CK1d (Homo sapiens (Human), UniProt P48730)
CK1d, sequence (P48730 whole entry): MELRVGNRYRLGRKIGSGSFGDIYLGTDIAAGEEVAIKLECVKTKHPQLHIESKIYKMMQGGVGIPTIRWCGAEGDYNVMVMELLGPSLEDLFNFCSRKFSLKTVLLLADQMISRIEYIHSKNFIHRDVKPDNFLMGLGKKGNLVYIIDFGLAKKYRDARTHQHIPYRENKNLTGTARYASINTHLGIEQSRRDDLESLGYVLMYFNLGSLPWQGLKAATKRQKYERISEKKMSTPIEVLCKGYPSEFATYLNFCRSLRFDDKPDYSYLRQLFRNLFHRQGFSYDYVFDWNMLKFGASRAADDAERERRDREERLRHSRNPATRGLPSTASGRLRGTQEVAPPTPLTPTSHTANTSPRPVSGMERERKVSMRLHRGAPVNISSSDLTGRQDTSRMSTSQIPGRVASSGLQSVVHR
Description: as §1, §2, §3, §4, §5, §6

MST2 = MST2 (Homo sapiens (Human), UniProt Q13188)
MST2, sequence (Q13188 whole entry, species assumed): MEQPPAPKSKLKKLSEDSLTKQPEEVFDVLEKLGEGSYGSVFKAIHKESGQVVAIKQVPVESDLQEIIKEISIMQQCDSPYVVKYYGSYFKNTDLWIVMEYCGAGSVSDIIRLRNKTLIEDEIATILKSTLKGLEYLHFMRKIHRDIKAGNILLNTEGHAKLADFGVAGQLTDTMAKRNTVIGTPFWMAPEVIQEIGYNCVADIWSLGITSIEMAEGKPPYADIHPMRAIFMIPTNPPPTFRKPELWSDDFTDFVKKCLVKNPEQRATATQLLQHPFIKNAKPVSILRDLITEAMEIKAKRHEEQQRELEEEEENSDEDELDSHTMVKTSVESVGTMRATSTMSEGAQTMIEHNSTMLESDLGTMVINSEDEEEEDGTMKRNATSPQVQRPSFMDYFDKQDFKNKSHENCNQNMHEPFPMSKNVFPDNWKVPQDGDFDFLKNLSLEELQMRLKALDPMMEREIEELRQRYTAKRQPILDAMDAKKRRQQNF
Description: as §1, §2, §3, §4, §5, §6

PKD1 = PKD1 (Homo sapiens (Human), UniProt Q15139)
Description: as §1, §2, §3, §4, §5, §6

NEK2 = NEK2 (Homo sapiens (Human), UniProt P51955)
Description: as §1, §2, §3, §4, §5, §6

ABL = ABL (Homo sapiens (Human), UniProt P00519)
ABL, sequence (P00519 whole entry, species assumed): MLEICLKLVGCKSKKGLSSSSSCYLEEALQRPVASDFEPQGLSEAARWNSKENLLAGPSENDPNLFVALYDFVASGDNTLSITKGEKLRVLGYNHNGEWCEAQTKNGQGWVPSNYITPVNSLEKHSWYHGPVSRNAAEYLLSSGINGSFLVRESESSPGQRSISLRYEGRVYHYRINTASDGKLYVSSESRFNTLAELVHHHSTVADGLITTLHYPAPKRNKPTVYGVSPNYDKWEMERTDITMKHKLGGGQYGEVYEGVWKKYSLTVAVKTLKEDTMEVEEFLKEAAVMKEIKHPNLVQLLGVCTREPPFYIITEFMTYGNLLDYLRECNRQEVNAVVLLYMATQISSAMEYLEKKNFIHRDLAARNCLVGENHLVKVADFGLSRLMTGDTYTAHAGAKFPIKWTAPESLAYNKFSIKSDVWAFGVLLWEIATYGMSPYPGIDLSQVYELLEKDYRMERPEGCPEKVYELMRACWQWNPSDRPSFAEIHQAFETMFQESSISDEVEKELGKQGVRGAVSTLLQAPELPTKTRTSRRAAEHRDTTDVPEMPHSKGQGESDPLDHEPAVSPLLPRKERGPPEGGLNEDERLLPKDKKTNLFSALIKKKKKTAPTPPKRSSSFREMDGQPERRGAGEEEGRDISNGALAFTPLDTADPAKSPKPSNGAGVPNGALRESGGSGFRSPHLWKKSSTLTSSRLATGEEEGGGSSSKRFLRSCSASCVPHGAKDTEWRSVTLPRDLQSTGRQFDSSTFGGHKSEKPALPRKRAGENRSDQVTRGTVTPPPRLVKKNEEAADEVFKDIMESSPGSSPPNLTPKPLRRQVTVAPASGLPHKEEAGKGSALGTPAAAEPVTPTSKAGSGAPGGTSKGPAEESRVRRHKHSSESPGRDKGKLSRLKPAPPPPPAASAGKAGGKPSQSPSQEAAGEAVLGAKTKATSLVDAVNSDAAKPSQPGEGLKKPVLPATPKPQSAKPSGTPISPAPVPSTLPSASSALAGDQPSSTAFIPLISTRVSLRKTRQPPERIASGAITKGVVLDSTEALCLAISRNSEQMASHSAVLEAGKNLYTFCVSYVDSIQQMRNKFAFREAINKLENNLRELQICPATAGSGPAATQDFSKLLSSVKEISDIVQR
Description: as §1, §2, §3, §4, §5, §6

Tie2 = Tie2 (Homo sapiens (Human), UniProt Q02763)
Description: as §1, §2, §3, §4, §5, §6

P70s6k = P70s6k (Homo sapiens (Human), UniProt P23443)
Description: as §1, §2, §3, §4, §5, §6

PKCa = PKCa (Homo sapiens (Human), UniProt P17252)
Description: as §1, §2, §3, §4, §5, §6

EGFR = EGFR (Homo sapiens (Human), UniProt P00533)
EGFR, sequence (P00533 25-1210, species assumed): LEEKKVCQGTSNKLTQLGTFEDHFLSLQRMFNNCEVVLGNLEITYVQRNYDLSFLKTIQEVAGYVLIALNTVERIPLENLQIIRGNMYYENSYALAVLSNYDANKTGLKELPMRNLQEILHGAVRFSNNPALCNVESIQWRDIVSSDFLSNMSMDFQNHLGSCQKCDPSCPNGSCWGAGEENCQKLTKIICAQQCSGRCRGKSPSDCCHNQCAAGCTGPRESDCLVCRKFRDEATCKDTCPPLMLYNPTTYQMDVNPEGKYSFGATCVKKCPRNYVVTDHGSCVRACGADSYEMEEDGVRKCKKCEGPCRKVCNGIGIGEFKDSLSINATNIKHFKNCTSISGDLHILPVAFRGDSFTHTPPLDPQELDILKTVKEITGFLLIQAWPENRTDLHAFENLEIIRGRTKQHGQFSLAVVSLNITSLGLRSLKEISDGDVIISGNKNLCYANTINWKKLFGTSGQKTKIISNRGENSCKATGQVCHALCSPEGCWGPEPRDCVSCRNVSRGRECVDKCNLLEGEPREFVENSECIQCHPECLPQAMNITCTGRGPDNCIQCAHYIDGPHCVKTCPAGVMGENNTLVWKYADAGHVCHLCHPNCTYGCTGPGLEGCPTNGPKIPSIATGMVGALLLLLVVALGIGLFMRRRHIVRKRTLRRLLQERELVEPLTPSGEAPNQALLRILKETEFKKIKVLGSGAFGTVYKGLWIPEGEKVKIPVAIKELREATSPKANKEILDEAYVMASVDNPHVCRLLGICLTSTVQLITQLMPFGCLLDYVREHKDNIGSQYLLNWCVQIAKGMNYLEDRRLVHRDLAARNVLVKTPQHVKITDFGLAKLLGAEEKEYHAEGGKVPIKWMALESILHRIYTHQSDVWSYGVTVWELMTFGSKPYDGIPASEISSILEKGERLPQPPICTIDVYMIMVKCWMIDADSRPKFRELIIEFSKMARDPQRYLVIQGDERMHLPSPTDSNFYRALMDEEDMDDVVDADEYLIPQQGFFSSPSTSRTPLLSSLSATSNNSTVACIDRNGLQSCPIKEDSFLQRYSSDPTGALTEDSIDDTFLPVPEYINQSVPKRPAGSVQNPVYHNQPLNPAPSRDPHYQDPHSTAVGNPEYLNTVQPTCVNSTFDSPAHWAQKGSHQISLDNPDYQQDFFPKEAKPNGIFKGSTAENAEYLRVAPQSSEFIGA
Description: as §1, §2, §3, §4, §5, §6

IGF1R = IGF1R (Homo sapiens (Human), UniProt P08069)
Description: as §1, §2, §3, §4, §5, §6

ROCK2 = ROCK2 (Homo sapiens (Human), UniProt O75116)
Description: as §1, §2, §3, §4, §5, §6

Q: Which results are given for `Nc1ccc(-c2ccc3ncc4c(=O)[nH]c(=O)n(-c5cccc(C(F)(F)F)c5)c4c3n2)cn1` [Compound 5, 9-(6-aminopyridin-3-yl)-1-(3-(trifluoromethyl)phenyl)pyrimido[5,4-c][1,5]naphthyridine-2,4(1H,3H)-dione]?
A: IC50 (JAK3): > 10000 nM; IC50 (GSK3β): > 10000 nM; IC50 (CMET): > 10000 nM; IC50 (PIM1): > 10000 nM; IC50 (SYK): > 10000 nM; IC50 (IKKB): > 10000 nM; IC50 (JNK2): > 10000 nM; IC50 (KDR): > 10000 nM; IC50 (CK1d): > 10000 nM; IC50 (MST2): > 10000 nM; IC50 (PKD1): 2410 nM; IC50 (NEK2): > 10000 nM; IC50 (ABL): > 10000 nM; IC50 (Tie2): 2430 nM; IC50 (P70s6k): > 10000 nM; IC50 (PKCa): > 10000 nM; IC50 (EGFR): > 10000 nM; IC50 (IGF1R): > 10000 nM; IC50 (ROCK2): > 10000 nM
